The values that follow come from US20250270202A1, “SUBSTITUTED 4-AMINOISOINDOLINE COMPOUND, PREPARATION METHOD THEREFOR, PHARMACEUTICAL COMPOSITION THEREOF, AND USE THEREOF” (SHANGHAI INSTITUTE OF MATERIA MEDICA, CHINESE ACADEMY OF …, priority 2022, published 2025).

SMILES strings stand for the structures.

For one data set, the system named is MM.1S cells. Kind of data set: Effect of the compound on MM.1S cell proliferation (MTS, 7 days). It is filed as cell-based. To be noted: Homo sapiens, MM1.S, 168 h, 7 days, MTS, Table 1, read-out: MM.1S Cells Inhibition Activity IC50. The essentials: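 MM.1S cells (20,000/well in RPMI 1640 with 10% FBS) were exposed to a 5-step compound dilution series (0.2% DMSO final) for 7 days at 37 °C, 5% CO2. MTS readout used OD490 minus OD690 after 3–4 h, and IC50 was fitted from three independent repeats.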

Another data set relates to MV-4-11 cells. In words: Inhibition of MV-4-11 cell proliferation (MTS, 7 days). It is filed as cell-based. As to conditions: Homo sapiens, MV4-11, 168 h, 7 days, MTS, Table 3, read-out: MV-4-11 Cells Inhibition Activity IC50. The essentials:
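Measured at 2,000 cells per well in IMDM with 10% FBS, five-fold compound dilutions, 0.2% DMSO final, 7 days at 37° C, 5% CO2. MTS added for 3-4 hours; signal as OD490-OD690. IC50 from three repeated experiments, each in triplicate.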

For the next data set, the system named is Mino cells. In words: Inhibition of cell proliferation of Mino cells (MTS, 3 days). The format is cell-based. As to conditions: Homo sapiens, MINO, 72 h, 3 days, MTS, Table 2, read-out: Mino Cells Inhibition Activity IC50. The essentials: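 Mino cells in RPMI-1640 with 15% FBS were seeded at 8000 cells/well and treated with 5-fold compound dilutions (final DMSO 0.2%) for 3 days at 37° C. Viability was measured by MTS as OD490−OD690 after 3-4 h. IC50 was fitted from inhibition relative to DMSO and blank, in three repeat experiments.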

Data set [1] can be described thus: Mouse pharmacokinetic experiment, oral gavage. As to conditions: ICR mice, female, oral gavage 20 mg/kg, plasma. It is filed as in vivo. The protocol: Mouse Pharmacokinetic Experimental Scheme ICR mice, female, 18-22 g, randomly divided into groups with 4 mice per group. The test compounds were administered by oral gavage at a dose volume of 10 mL/kg. The oral solution was prepared using DMSO/PEG-400/water (5:30:65, v/v/v). Mice were fasted for 12 hours prior to the experiment with free access to water. After drug administration, they were allowed to eat uniformly at 2 hours post-dose. The test compounds (20 mg/kg) were orally administered to 4 mice. Blood samples (50 μL) were collected from the orbital vein at the following time points: 5 min, 15 min, 30 min, 1 h, 2 h, 4 h, 6 h, and 24 h. The blood was centrifuged at 12,000 rpm for 2 minutes to separate plasma, which was then stored at −20° C. for blood concentration measurement.

As usually defined, the IC50 is the concentration needed to halve the response being measured. The AUC(0-t) is the area under the concentration-time curve up to a stated or last time point. One may read the Cmax as the maximum level reached in the sampled fluid or tissue.

In the case of `[2H]c1c([2H])c([2H])c(-c2ncc(CNc3cccc4c3C(=O)N(C3CCC(=O)NC3=O)C4=O)o2)c([2H])c1[2H]` (centres unmarked) [Example 45], the IC50 in the data set on MM.1S cells is 15 to 30 nM; in the data set on MV-4-11 cells it was below 1000 nM; with Mino cells, below 60 nM. In data set [1], this compound showed an AUC(0-t) above 10000 ng·h/mL. In data set [1], this compound came in with a Cmax above 2000 ng/mL.
The like results for `O=C1CCC(N2C(=O)c3cccc(NCc4cnc(-c5ccccc5)o4)c3C2=O)C(=O)N1` (centres unmarked) [Example 22] were, in that order, below 15 nM, below 1000 nM, below 60 nM, above 10000 ng·h/mL and above 2000 ng/mL.
Take `O=C1CCC(N2C(=O)c3cccc(NCc4cnc(-c5ccc(C(F)(F)F)cc5)s4)c3C2=O)C(=O)N1` (centres unmarked) [Example 37]: the IC50 in the data set with MM.1S cells is below 15 nM; in the data set with MV-4-11 cells, below 1000 nM; in the data set on Mino cells it was below 60 nM. The compound further came in with an AUC(0-t) in data set [1] above 10000 ng·h/mL. The compound also registered a Cmax in data set [1] above 2000 ng/mL.
The like results for `O=C1CCC(N2C(=O)c3cccc(NCc4cnc(-c5ccc(OC6CC6)cc5)o4)c3C2=O)C(=O)N1` (centres unmarked) [Example 51, 4-(((2-(4-Cyclopropoxyphenyl)oxazol-5-yl)methyl)amino)-2-(2,6-Dioxopiperidin-3-yl)isoindolin-1,3-dione] were, in that order, below 15 nM, below 1000 nM, below 60 nM, above 10000 ng·h/mL and above 2000 ng/mL.
